Source: publication PMC2248166, “Quantitative peptide binding motifs for 19 human and mouse MHC class I molecules derived using positional scanning combinatorial peptide libraries” (Immunome Research, 2008)

How the values were obtained:
[1] = biological target: HLA A*3201 (Homo sapiens, UniProt P04439, A270S/D101S/D185E/E176V/E277Q/F133L/G103R/G107R/G231S/H175R/I121M/I218V/I322F/K168Q/L105A/L300P/L318F/M331R/P208A/P217A/Q94H/R106L/R138Q/S129P/T104I/T323A/T345S/V100E/V321M/V358M); experiment: biochemical; assay type: binding
[2] = biological target: HLA B*1503 (Homo sapiens, UniProt P01889, A329T/A93T/A95T/C349S/D201E/D98Y/E187L/E204Q/K202T/N87E/Q94N/R155S/R180L/S121R/S35A/V306I/V36M/Y140S/Y91S); experiment: biochemical; assay type: binding
[3] = biological target: HLA A*6802 (Homo sapiens, UniProt P04439, A269V/D140Y/D185E/E176V/E277Q/E87N/F33Y/G231S/I121R/I166T/I218V/L180W/L300P/L318F/N151K/P208A/P217A/Q86R/R138H/R169H/S129P/T345S/V36M); assay type: binding
[4] = biological target: HLA B*5801 (Homo sapiens, UniProt P01889, A329T/C349S/D201E/D98Y/E176V/E187L/E204Q/E69T/G107R/I218V/I90N/K202T/L105A/L119I/N104I/N87E/Q89R/Q94S/R106L/R155S/R180L/R86G/S101N/S121R/S35A/S48A/T118I/V127L/V306I/V36M/Y140S/Y91M); assay type: binding
[5] = biological target: HLA B*5401 (Homo sapiens, UniProt P01889, A329T/C349S/D138N/D201E/E176V/E187T/E204Q/E69G/I76V/K202T/L119W/R155S/R180L/S121T/S35A/S48A/V127L/V306I/V36M/Y140L); assay type: binding
[6] = biological target: H-2 D^d (Mus musculus, UniProt P01900); assay type: binding
[7] = biological target: HLA B*1501 (Homo sapiens, UniProt P01889, A329T/A93T/A95T/C349S/D201E/D98Y/E187L/E204Q/E69M/E70A/K202T/N87E/Q94N/R155S/R180W/S121R/S35A/S48A/V306I/V36M/Y140S/Y91S); experiment: biochemical; assay type: binding
[8] = biological target: HLA B*3501 (Homo sapiens, UniProt P01889, A329T/A93T/A95T/C349S/D201E/D98Y/E176V/E187L/E204Q/E69T/I218V/K202T/L119I/Q94N/R155S/R180L/S121R/S35A/S48A/T118I/V127L/V306I/V36M/Y140S/Y91F); assay type: binding
[9] = biological target: HLA A*3001 (Homo sapiens, UniProt P04439, D140H/D185E/E176W/F33S/G80R/H175R/K168Q/R138E/R41S); experiment: biochemical; assay type: binding
[10] = biological target: H-2 D^b (Mus musculus, UniProt P01899); assay type: binding
[11] = biological target: HLA B*0801 (Homo sapiens, UniProt P01889, A93T/A95T/D138N/E176V/E187T/K202T/Q94N/R180D/S35A/V36M/Y33D/Y91F); experiment: biochemical; assay type: binding
[12] = biological target: HLA B*5301 (Homo sapiens, UniProt P01889, A329T/A93T/A95T/C349S/D201E/D98Y/E176V/E187L/E204Q/E69T/G107R/I218V/K202T/L105A/L119I/N104I/Q94N/R106L/R155S/R180L/S101N/S121R/S35A/S48A/T118I/V127L/V306I/V36M/Y140S/Y91F); assay type: binding
[13] = biological target: HLA B*2705 (Homo sapiens, UniProt P01889, D138H/D201E/E176V/E204Q/G107R/H137Y/K202T/N104T/N87E/Q56L/Q94K/R106L/R155S/R180L/S101D/S121N/S48T/Y140D/Y33H/Y91C); assay type: binding; settings: positional scanning combinatorial 9-mer library; normalized to 1.0 for the best residue at each position
[14] = biological target: H-2 K^k (Mus musculus, UniProt P04223); assay type: binding
[15] = biological target: HLA B*0702 (Homo sapiens, UniProt P01889); assay type: binding; settings: positional scanning combinatorial 9-mer library; normalized to 1.0 for the best residue at each position
[16] = biological target: HLA B*5101 (Homo sapiens, UniProt P01889, A329T/A93T/A95T/C349S/D138N/D201E/D98Y/E187L/E204Q/E69T/G107R/I218V/K202T/L105A/L119W/N104I/Q94N/R106L/R155S/R180L/S101N/S121T/S35A/S48A/V306I/V36M/Y195H/Y91F); assay type: binding
[17] = biological target: HLA A*0201 (Homo sapiens, UniProt P04439, D140Y/D185E/D98H/E176V/E277Q/G131W/G231S/I119V/I121R/I166T/I218V/L300P/L318F/N151K/N90K/P208A/P217A/Q86G/Q94H/R138H/R169H/T345S); settings: positional scanning combinatorial 9-mer library; normalized to 1.0 for the best residue at each position
[18] = biological target: HLA B*5802 (Homo sapiens, UniProt P01889, A329T/C349S/D201E/D98Y/E176V/E187L/E204Q/E69T/G107R/I218V/I90N/K202T/L105A/N104I/N87E/Q89R/Q94S/R106L/R155S/R180L/R86G/S101N/S121W/S35A/S48A/V127L/V306I/V36M/Y140S/Y91M); assay type: binding

Sequence of H-2 D^b (P01887 21-119): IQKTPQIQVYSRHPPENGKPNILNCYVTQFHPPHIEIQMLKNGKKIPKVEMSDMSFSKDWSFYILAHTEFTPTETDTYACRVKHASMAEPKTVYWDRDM
Sequence of H-2 D^b (P01899 25-362): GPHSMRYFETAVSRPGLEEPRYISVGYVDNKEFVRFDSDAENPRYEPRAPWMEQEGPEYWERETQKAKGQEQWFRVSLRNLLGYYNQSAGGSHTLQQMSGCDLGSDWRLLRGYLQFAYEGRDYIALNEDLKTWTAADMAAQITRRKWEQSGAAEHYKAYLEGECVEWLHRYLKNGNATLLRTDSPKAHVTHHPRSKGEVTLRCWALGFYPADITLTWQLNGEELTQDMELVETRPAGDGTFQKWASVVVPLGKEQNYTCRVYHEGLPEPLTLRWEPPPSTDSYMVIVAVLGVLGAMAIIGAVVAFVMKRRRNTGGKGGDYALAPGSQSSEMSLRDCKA
Sequence of H-2 K^k (P01887 21-119): as the sequence (P01887 21-119) above
Sequence of H-2 K^k (P04223 22-369): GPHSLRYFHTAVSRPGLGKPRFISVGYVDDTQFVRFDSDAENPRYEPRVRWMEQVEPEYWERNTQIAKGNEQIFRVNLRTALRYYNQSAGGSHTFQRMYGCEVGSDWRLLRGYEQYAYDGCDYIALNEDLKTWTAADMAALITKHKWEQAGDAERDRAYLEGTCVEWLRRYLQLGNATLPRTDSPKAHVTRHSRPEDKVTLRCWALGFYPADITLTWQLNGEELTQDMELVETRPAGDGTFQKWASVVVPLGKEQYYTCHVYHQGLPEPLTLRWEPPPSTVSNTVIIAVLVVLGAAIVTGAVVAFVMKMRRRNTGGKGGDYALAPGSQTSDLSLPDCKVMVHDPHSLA
Sequence of H-2 D^d (P01900 whole entry, looked up): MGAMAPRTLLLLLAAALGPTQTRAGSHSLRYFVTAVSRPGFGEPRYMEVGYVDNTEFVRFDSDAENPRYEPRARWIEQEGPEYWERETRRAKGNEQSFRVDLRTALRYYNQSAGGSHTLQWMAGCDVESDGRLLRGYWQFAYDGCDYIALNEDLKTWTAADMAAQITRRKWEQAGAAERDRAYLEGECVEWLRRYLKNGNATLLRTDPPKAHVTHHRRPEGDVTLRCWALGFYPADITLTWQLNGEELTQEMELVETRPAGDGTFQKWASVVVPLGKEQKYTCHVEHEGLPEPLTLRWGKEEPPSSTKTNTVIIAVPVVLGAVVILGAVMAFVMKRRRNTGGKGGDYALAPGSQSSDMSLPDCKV

Row | Sequence | Normalized average relative binding affinity (ARB), HLA A*3201 [1] | Normalized average relative binding affinity (ARB), HLA B*1503 [2] | Normalized average relative binding affinity (ARB), HLA A*6802 [3] | Normalized average relative binding affinity (ARB), HLA B*5801 [4] | Normalized average relative binding affinity (ARB), HLA B*5401 [5] | Normalized average relative binding affinity (ARB), H-2 Dd [6] | Normalized average relative binding affinity (ARB), HLA B*1501 [7] | Normalized average relative binding affinity (ARB), HLA B*3501 [8] | Normalized average relative binding affinity (ARB), HLA A*3001 [9] | Normalized average relative binding affinity (ARB), H-2 Db [10] | Normalized average relative binding affinity (ARB), HLA B*0801 [11] | Normalized average relative binding affinity (ARB), HLA B*5301 [12] | Normalized average relative binding affinity (ARB), HLA B*2705 [13] | Normalized average relative binding affinity (ARB), H-2 Kk [14] | Normalized average relative binding affinity (ARB), HLA B*0702 [15] | Normalized average relative binding affinity (ARB), HLA B*5101 [16] | Normalized average relative binding affinity (ARB), HLA A*0201 [17] | Normalized average relative binding affinity (ARB), HLA B*5802 [18]
1 | XPXXXXXXX [3064.0033] | 0.022 | 0.031 | 0.041 | 0.014 | 0.19 | 0.064 | 0.015 | 1.0 | 0.024 | 0.036 | 1.0 | 1.0 | 0.0016 | 0.017 | 1.0 | 1.0 | 0.0034 | 0.051
2 | RXXXXXXXX [3064.0015] | 0.97 | 0.56 | 0.044 | 0.79 | 0.027 | 0.41 | 0.67 | 0.045 | 1.0 | 0.12 | 0.19 | 0.020 | 1.0 | 0.11 | 1.0 | 0.028 | 0.084 | 0.52
3 | XKXXXXXXX [3064.0029] | 0.0079 | 0.29 | 0.011 | 0.014 | 0.0038 | 0.093 | 0.0091 | 0.0078 | 0.026 | 0.052 | 0.097 | 0.0053 | 0.0076 | 0.0031 | 0.0028 | 0.022 | 0.012 | 0.045
4 | XQXXXXXXX [3064.0034] | 0.32 | 1.0 | 0.0081 | 0.024 | 0.0034 | 0.015 | 1.0 | 0.039 | 0.33 | 1.0 | 0.13 | 0.047 | 0.016 | 0.053 | 0.011 | 0.11 | 0.14 | 0.21
